How the values were obtained:
[1] = biological target: T1, human ghrelin receptor (GRLN, growth hormone secretagogue receptor, hGHS-R1a) (Homo sapiens, UniProt Q92847); assay: Competitive radioligand binding assay (ghrelin receptor), Method B1; conditions: Ghrelin receptor binding activity, Method B1
T1 construct: purchased PerkinElmer BioSignal #RBHGHSM, lot#1887; host or cells: HEK-293 cells, stably transfected (membranes)
Method in brief: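 Membranes incubated with compound 30 min at rt in 25 mM Hepes pH 7.4, 1 mM CaCl2, 5 mM MgCl2, 2.5 mM EDTA, 0.4% BSA, max 0.1% DMSO; filtered on PEI-soaked GF/C, washed with cold Tris, scintillation counted. Curves fitted by variable-slope non-linear regression.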

[2] = biological target: T2, GHS-R1a receptor (HEK293 cells expressing GHS-R1a receptor) (Homo sapiens, UniProt Q92847); assay: Fluorescence functional assay (ghrelin receptor), Method B2, agonist and antagonist mode; type: cell-based; conditions: functional activity as an antagonist at the ghrelin receptor, Methods B2 and B3
T2 construct: host or cells: HEK293
T2 sequence (Q92847 whole entry): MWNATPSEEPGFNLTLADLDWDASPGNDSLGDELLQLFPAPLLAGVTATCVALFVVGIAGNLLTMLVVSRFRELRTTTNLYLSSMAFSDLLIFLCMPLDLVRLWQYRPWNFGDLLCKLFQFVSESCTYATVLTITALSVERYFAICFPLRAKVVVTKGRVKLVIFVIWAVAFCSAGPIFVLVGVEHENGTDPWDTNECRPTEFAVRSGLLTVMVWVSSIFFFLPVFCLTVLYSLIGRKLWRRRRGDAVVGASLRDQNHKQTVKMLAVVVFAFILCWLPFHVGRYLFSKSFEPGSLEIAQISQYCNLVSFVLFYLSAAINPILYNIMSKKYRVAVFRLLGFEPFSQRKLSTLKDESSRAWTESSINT
Method in brief: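 Calcium flux read by ImageTrak epifluorescence in HEK293 cells stably expressing GHS-R1a, loaded 1 h at 37 °C with Calcium-3 dye; buffer HBSS/20 mM Hepes, pH 7.4, with probenecid and BSA. Agonists injected after 10 s baseline, read 50 s more; antagonists 3 min. Sigmoidal fits gave EC50 or IC50.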

[3] = tested on: rat stomach fundus strips; assay: Ex-vivo potency evaluation on the rat stomach fundus (inhibition of ghrelin-induced contractility), Method B10; conditions: EFS
Method: B10. Ex-vivo Potency Evaluation on the Rat Stomach Fundus
Fundus strips (approximately 0.4×1 cm) were cut from the stomach of adult male Wistar rats parallel to the circular muscle fibers. They were placed between two platinum ring electrodes, 1 cm apart (Radnoti, ADlnstruments, USA) in 10 ml tissue baths containing Krebs solution bubbled with 5% CO2 in O2 and maintained at 37° C. Tissues were suspended under 1.5 g resting tension. Changes of tension were measured isometrically with force transducers and recorded with a PowerLab 8/30 data acquisition system (ADlnstruments, USA). Tissues were allowed to equilibrate for 60 min during which time bath solutions were changed every 15 min.
EFS was achieved by applying 0.5 ms pulses, 5 Hz frequency, at a maximally effective voltage of 70 V. EFS was applied for 30 sec at 3 min intervals for a 30 min initial period. This initial period was separated by a […] interval with wash out of the bath solution. Then, a second period of stimulation was started. […] Responses to the agents were measured and expressed as % of the mean of three or four pre-drug responses to EFS. All compounds were dissolved at 1 mM in distilled water or MeOH, as stock solutions.
IC50 values for the inhibition of ghrelin-induced contractility by representative compounds of the invention are presented in Table 7.

[4] = Metabolic stability in human liver microsomes, Method B8; type: in vitro ADME; conditions: human liver microsomes 0.8 mg/mL, 5 μM compound, 37° C.
Excerpt: B8. Metabolic Stability in Human Liver Microsomes
The liver is the primary site for phase I (oxidation) and phase II (glucuronidation) enzymatic activity responsible for xenobiotic metabolism. Human liver microsomes are used as in vitro screen of metabolic activity for candidate drugs. Similar studies can be run with microsomes from other species, such as those used for in vivo studies, to determine any significant species differences in the stability profile. The aim of this study was to measure the broad-spectrum metabolic stability of representative compounds of the invention. The key aspects of the experimental design are summarized below: • Human liver microsomes (mixed pool of 15 male and female donors) were purchased from In Vitro Technologies (Baltimore, Md.). • Microsomes characterized for phase I (Cyp2A6, 2D6, 2E1, 1A2, 2C19, 3A4, 4A) and phase II (glucuronidation) enzymatic activity. • Assays are performed using a final concentration of 0.8 mg/mL of microsomes in 100 mM potassium phosphate buffer (1.5 mM NADPH, 8 mM MgCl2, pH 7.4, 37° C.). • Compounds are tested in duplicate samples at a single concentration of 5 μM (0.05% DMSO). • Test articles are incubated with the microsomes at 37° C.

[5] = biological target: T3, ghrelin receptor (HEK-GHSR1 stable cells) (Homo sapiens, UniProt Q92847); assay: Ghrelin receptor inverse agonist assay (HTRF IP-one), Method B4; type: cell-based; conditions: inverse agonist at the ghrelin receptor, Method B4
T3 construct: expressed in transfected cells
T3 sequence (Q92847 whole entry): as above
Method in brief: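 HEK cells stably expressing GHSR1, seeded at 100 000 cells/well overnight, exposed to compound for 30 min at 37° C. Cells then lysed and IP1 accumulation measured by HTRF (d2 plus anti-IP1 cryptate, 1 h at room temp). Wells lacking d2 served as negative control.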

[6] = Plasma protein binding (equilibrium dialysis), Method B5; type: in vitro ADME; conditions: 60 min at 37° C., typically 10 μM
Excerpt: B5. Plasma Protein Binding
The pharmacokinetic and pharmacodynamic properties of drugs are largely a function of the reversible binding of drugs to plasma or serum proteins such as albumin and α1-acid glycoprotein. In general, only unbound drug is available for diffusion or transport across cell membranes, and for interaction at the pharmacological target. On the other hand, drugs with low plasma protein binding generally have large volumes of distribution and rapid clearance since only unbound drug is available for glomerular filtration and, in some cases, hepatic clearance. Thus, the extent of plasma protein binding can influence efficacy, distribution and elimination. The ideal range for plasma protein binding is in the range of 87-98% for most drug products.
Protein binding studies were performed using human plasma. Briefly, 96-well microplates were used to incubate various concentrations of the test article for 60 min at 37° C. A concentration of 10 μM was a typical selection to be employed in this study. Bound and unbound fractions are separated by equilibrium dialysis, where the concentration remaining in the unbound fraction is quantified by LC-MS or LC-MS-MS analysis. […].

CYP3A4 = CYP3A4 (Homo sapiens, UniProt P08684); assay: Cytochrome P450 inhibition, Method B6 (two substrates); conditions: read-out: IC50 CYP 3A4; Table 4b; midazolam used as substrate
Chain of CYP3A4 (P08684 whole entry): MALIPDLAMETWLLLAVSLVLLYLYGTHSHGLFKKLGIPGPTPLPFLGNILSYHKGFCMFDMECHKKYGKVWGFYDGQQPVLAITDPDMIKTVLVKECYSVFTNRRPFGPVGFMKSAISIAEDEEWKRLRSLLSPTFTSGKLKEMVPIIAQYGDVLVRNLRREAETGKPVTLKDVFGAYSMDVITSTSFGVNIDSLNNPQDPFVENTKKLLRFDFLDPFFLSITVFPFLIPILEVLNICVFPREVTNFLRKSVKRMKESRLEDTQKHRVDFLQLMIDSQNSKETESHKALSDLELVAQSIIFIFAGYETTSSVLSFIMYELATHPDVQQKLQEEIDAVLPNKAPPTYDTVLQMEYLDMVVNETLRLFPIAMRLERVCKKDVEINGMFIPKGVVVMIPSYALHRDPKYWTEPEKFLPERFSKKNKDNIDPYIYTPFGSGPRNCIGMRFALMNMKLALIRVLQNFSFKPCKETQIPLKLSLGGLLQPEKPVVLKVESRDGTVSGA

[7] = Pharmacokinetic analysis (intravenous and oral), Method B9; type: in vivo; conditions: Table 10b; 2 mg/mL intravenous typically employed
Excerpt: B9. Pharmacokinetic Analysis
The pharmacokinetic (PK) behavior of compounds of the invention and their pharmaceutical compositions can be ascertained by methods well known to those skilled in the art and can be used to investigate the pharmacokinetic parameters (elimination half-life, total plasma clearance, etc.) for intravenous, subcutaneous and oral administration of these substances. (Wilkinson, G. R. “Pharmacokinetics: The Dynamics of Drug Absorption, Distribution, and Elimination” in Goodman & Gilman's The Pharmacological Basis of Therapeutics, Tenth Edition, Hardman, J. G.; Limbird, L. E., Eds., McGraw Hill, Columbus, Ohio, 2001, Chapter 1.) See also U.S. Pat. Nos. 7,476,653; 7,491,695; Intl. Pat. Appl. WO 2008/033328 and U.S. Patent Appl. Publ. 2008/0194672. As an example, compound 1505 has the PK profile below.
The determination of PK parameters for additional representative compounds of the invention is presented in the Examples.
A detailed analysis of the pharmacokinetic profile of representative compounds of the invention was conducted using the procedures outlined in Method B9.
A dose level of 2 mg/mL for intravenous administration and 8 mg/mL for oral administration were typically employed.

T1 sequence (Q92847 whole entry): as the sequence (Q92847 whole entry) above

Compound	IC50 [1] [nM]	Antagonist Activity [2]	HLM, metabolic stability in human liver microsomes [4] [μL/min/mg protein]	IC50 [5] [nM]	other results
CCC(C)[C@@H]1NCCOc2ccccc2/C=C/[C@@H](C)NC(=O)[C@@H](Cc2ccccc2)NC(=O)[C@H](C(C)O)N(C)C1=O (stereo partly drawn) [Compound 1315]	1 to 10	C (C = 10-100 nM)	–	–	Ki [1]: 1 to 10 nM; IC50 [3]: 75 nM
CC(C)[C@@H]1NCCOc2ccccc2CC[C@@H](C)NC(=O)[C@@H](Cc2cccc(F)c2)NC(=O)[C@H](C(C)O)N(C)C1=O (stereo partly drawn) [Compound 1364]	–	B (B = 1-10 nM)	–	–	IC50 [3]: 200 nM
CC(C)[C@@H]1NCCOc2cc(F)ccc2CC[C@@H](C)NC(=O)[C@@H](Cc2ccccc2)NC(=O)[C@H](C(C)O)N(C)C1=O (stereo partly drawn) [Compound 1391]	–	A (A <1 nM)	16.6	–	IC50 [3]: 65 nM
CC(C)[C@@H]1NCCOc2cc(F)ccc2CC[C@@H](C)NC(=O)[C@@H](Cc2cccc(F)c2)NC(=O)[C@H](C(C)O)N(C)C1=O (stereo partly drawn) [Compound 1392]	–	A (A <1 nM)	23.6	–	IC50 [3]: 4 nM
CC(C)[C@@H]1NCCOc2ccccc2CC[C@@H](C)NC(=O)[C@@H](Cc2cccc(Cl)c2)NC(=O)[C@H](C(C)O)N(C)C1=O (stereo partly drawn) [Compound 1400]	–	A (A <1 nM)	54.2	–	IC50 [3]: 360 nM
CCC(C)C1NCCOc2ccccc2CCCNC(=O)C(Cc2ccc(Cl)cc2)NC(=O)C(C(C)O)N(C)C1=O (stereo not drawn) [Compound 1699]	10 to 100	C (C = 10-100 nM)	85.2	100 to 500	–
CC(C)[C@@H]1NCCOc2ccccc2C#C[C@@H](C)NC(=O)[C@@H](Cc2ccc(F)cc2)NC(=O)[C@H](C(C)O)N(C)C1=O (stereo partly drawn) [Compound 1711]	1 to 10	–	–	10 to 50	Binding (%), Human Plasma Protein Binding [6]: 97.4%
CCC(C)C1NCCOc2ccccc2C=CCNC(=O)C(Cc2ccc(Cl)cc2)NC(=O)C(C(C)O)N(C)C1=O (stereo not drawn) [Compound 1730]	1 to 10	–	61.9	100 to 500	IC50 (CYP3A4): 1600 nM
CCC(C)C1NCCOc2cc(F)ccc2C=CCNC(=O)C(Cc2ccc(Cl)cc2)NC(=O)C(C(C)O)N(C)C1=O (stereo not drawn) [Compound 1739]	1 to 10	B (B = 1-10 nM)	26.1	100 to 500	–
CCC(C)C1NCCOc2ccc(F)cc2C=CCNC(=O)C(Cc2ccc(Cl)cc2)NC(=O)C(C(C)O)N(C)C1=O (stereo not drawn) [Compound 1740]	1 to 10	C (C = 10-100 nM)	28.3	100 to 500	–
CC(O)[C@H]1C(=O)N[C@H](Cc2ccc(Cl)cc2)C(=O)N[C@H](C)CCc2ccccc2OCCN[C@@H](C(C)(C)C)C(=O)N1C (stereo partly drawn) [Compound 1742]	10 to 100	–	157.4	10 to 50	–
CC(O)[C@H]1C(=O)N[C@H](Cc2c[nH]c3ccccc23)C(=O)N[C@H](C)CCc2ccccc2OCCN[C@@H](C2CC2)C(=O)N1C (stereo partly drawn) [Compound 1745]	10 to 100	–	117.0	100 to 500	–
CC(C)[C@@H]1NCCOc2cc(F)ccc2CC[C@@H](C)NC(=O)[C@@H](Cc2ccc(Cl)cc2)NC(=O)[C@H](C(C)O)N(C)C1=O (stereo partly drawn) [Compound 1758]	1 to 10	–	90.4	10 to 50	–
CC[C@@H]1C#Cc2ccc(F)cc2OCCN[C@@H](C(C)C)C(=O)N(C)[C@@H](C(C)O)C(=O)N[C@H](Cc2ccccc2)C(=O)N1 (stereo partly drawn) [Compound 1759]	1 to 10	–	40.6	50 to 100	Cl [7]: 14 ± 2 mL/min/kg; t1/2 [7]: 119 ± 101 min
CC[C@@H]1C#Cc2ccc(F)cc2OCCN[C@@H](C(C)C)C(=O)N(C)[C@@H](C(C)O)C(=O)N[C@H](Cc2cccc(F)c2)C(=O)N1 (stereo partly drawn) [Compound 1760]	1 to 10	–	34.8	50 to 100	–
CCC(C)C1NCCOc2ccccc2C=CCNC(=O)C(Cc2ccc(Cl)cc2Cl)NC(=O)C(C(C)O)N(C)C1=O (stereo not drawn) [Compound 1761]	10 to 100	–	77.0	50 to 100	–
CC(O)[C@H]1C(=O)N[C@H](Cc2c[nH]c3ccccc23)C(=O)N[C@H](C)CCc2ccccc2OCCN[C@@H](C(C)(C)C)C(=O)N1C (stereo partly drawn) [Compound 1762]	10 to 100	–	73.4	100 to 500	–
